# Assay results taken from US8748348B2, “3-(3,4-dihydro-2H-benzo [1,4]oxazin-6-yl)-1H-pyrimidin-2,4-dione compounds as herbicides” (BASF SE, priority 2009, dated 2014).
# Columns and labels:
# BRAPL = assay: greenhouse post-emergence herbicidal test; format: in vivo, Brachiaria plantaginea; conditions: scale from 0 to 100
# Text: (§1) The culture containers used were plastic flowerpots containing loamy sand with approximately 3.0% of humus as the substrate. The seeds of the test plants were sown separately for each species.
# (§2) For the post-emergence treatment, the test plants were first grown to a height of 3 to 15 cm, depending on the plant habit, and only then treated with the active ingredients which had been suspended or emulsified in water. For this purpose, the test plants were either sown directly and grown in the same containers, or they were first grown separately as seedlings and transplanted into the test containers a few days prior to treatment.
# (§3) Depending on the species, the plants were kept at 10-25° C. or 20-35° C. The test period extended over 2 to 4 weeks. During this time, the plants were tended, and their response to the individual treatments was evaluated.
# (§4) Evaluation was carried out using a scale from 0 to 100. 100 means no emergence of the plants, or complete destruction of at least the aerial moieties, and 0 means no damage, or normal course of growth. A good herbicidal activity is given at values of at least 70 and a very good herbicidal activity is given at values of at least 85.
# COMBE = assay: greenhouse post-emergence herbicidal test; format: in vivo, Commenline benghalensis; conditions: scale from 0 to 100
# Text: as §1, §2, §3, §4
# SETVI = assay: greenhouse post-emergence herbicidal test; format: in vivo, Setaria viridis; conditions: scale from 0 to 100
# Text: as §1, §2, §3, §4
# ERICA = assay: greenhouse post-emergence herbicidal test; format: in vivo, Erigeron canadensis; conditions: scale from 0 to 100
# Text: as §1, §2, §3, §4
# BRADE = assay: greenhouse post-emergence herbicidal test; format: in vivo, Brachiaria deflexa; conditions: scale from 0 to 100
# Text: as §1, §2, §3, §4
# ELEIN = assay: greenhouse post-emergence herbicidal test; format: in vivo, Eleusine indica; conditions: scale from 0 to 100
# Text: as §1, §2, §3, §4
# DIGSA = assay: greenhouse post-emergence herbicidal test; format: in vivo, Digitaria sanguinales; conditions: scale from 0 to 100
# Text: as §1, §2, §3, §4
# Abutilon theophrasti = assay: greenhouse post-emergence herbicidal test; format: in vivo; conditions: post-emergence method, application rate 6.25 g/ha
# Text: as §1, §2, §3, §4
# Amaranthus retroflexus [1] = assay: greenhouse post-emergence herbicidal test; format: in vivo; conditions: post-emergence method, application rate 6.25 g/ha
# Text: as §1, §2, §3, §4
# Chenopodium album = assay: greenhouse post-emergence herbicidal test; format: in vivo; conditions: post-emergence method, application rate 6.25 g/ha
# Text: as §1, §2, §3, §4
# Pharbitis purpurea [2] = assay: greenhouse post-emergence herbicidal test; format: in vivo; conditions: post-emergence method, application rate 6.25 g/ha
# Text: as §1, §2, §3, §4
# Amaranthus retroflexus [3] = assay: greenhouse pre-emergence herbicidal test; format: in vivo; conditions: pre-emergence method, application rate 6.25 g/ha
# Text: as §1
# (§5) For the pre-emergence treatment, the active ingredients, which had been suspended or emulsified in water, were applied directly after sowing by means of finely distributing nozzles. The containers were irrigated gently to promote germination and growth and subsequently covered with transparent plastic hoods until the plants had rooted. This cover caused uniform germination of the test plants, unless this has been impaired by the active ingredients.
# as §3, §4
# Erigeron Canadensis = assay: greenhouse pre-emergence herbicidal test; format: in vivo; conditions: pre-emergence method, application rate 6.25 g/ha
# Text: as §1, §5, §3, §4
# Pharbitis purpurea [4] = assay: greenhouse pre-emergence herbicidal test; format: in vivo; conditions: application rate 0.025 kg/ha, eight days after treatment (greenhouse)
# Text: as §1, §5, §3, §4
# Setaria faberi = assay: greenhouse pre-emergence herbicidal test; format: in vivo; conditions: application rate 0.025 kg/ha, eight days after treatment (greenhouse)
# Text: as §1, §5, §3, §4
# Solanum nigrum = assay: greenhouse pre-emergence herbicidal test; format: in vivo; conditions: pre-emergence method, application rate 6.25 g/ha
# Text: as §1, §5, §3, §4
smiles,measurement,setting,value
"CCNc1nc(Cl)nc(NC(C)C)n1 [B.54, atrazine, reference compound]",herbicidal activity against BRAPL found,BRAPL; B.54 250 g/ha a.s.,20
same,herbicidal activity against COMBE found,COMBE; B.54 250 g/ha a.s.,70
"CC(C)N(C)S(=O)(=O)NC(=O)c1cc(-n2c(=O)cc(C(F)(F)F)n(C)c2=O)c(F)cc1Cl [B.76, saflufenacil]",herbicidal activity against SETVI found,SETVI; B.76 1.56 g/ha a.s.,0
same,herbicidal activity against ERICA found,ERICA; B.76 1.56 g/ha a.s.,45
"Cc1c(C(=O)c2cnn(C)c2O)ccc(S(C)(=O)=O)c1C1=NOCC1 [B.93, topramezone, reference compound]",herbicidal activity against BRADE found,BRADE; B.93 3.1 g/ha a.s.,65
"CC(C)N.O=C(O)CNCP(=O)(O)O [B.98, glyphosate-isopropylammonium]",herbicidal activity against ELEIN found,ELEIN; B.98 135 g/ha a.s.,60
same,herbicidal activity against SETVI found,SETVI; B.98 68 g/ha a.s.,90
same,herbicidal activity against ERICA found,ERICA; B.98 68 g/ha a.s.,80
"Cn1nc(C(F)(F)F)c(CS(=O)(=O)C2=NOC(C)(C)C2)c1OC(F)F [B.118, pyroxasulfone, reference compound]",herbicidal activity against DIGSA found,DIGSA; B.118 12.5 g/ha a.s.,35
"C#CCN1C(=O)C(F)(F)Oc2cc(F)c(-n3c(=O)cc(C(F)(F)F)n(C)c3=O)cc21 [Ia48, 1-Methyl-6-trifluoromethyl-3-(2,2,7-trifluoro-3-oxo-4-prop-2-ynyl-3,4-dihydro-2H-benzo[1,4]oxazin-6-yl)-1H-pyrimidine-2,4-dione]",herbicidal activity against Abutilon theophrasti,Abutilon theophrasti,very good herbicidal activity (a very good herbicidal activity is given at values of at least 85)
same,herbicidal activity against Amaranthus retroflexus,Amaranthus retroflexus [1],very good herbicidal activity (a very good herbicidal activity is given at values of at least 85)
same,herbicidal activity against Chenopodium album,Chenopodium album,very good herbicidal activity (a very good herbicidal activity is given at values of at least 85)
same,herbicidal activity against Pharbitis purpurea,Pharbitis purpurea [2],very good herbicidal activity (a very good herbicidal activity is given at values of at least 85)
same,herbicidal activity against BRAPL found,BRAPL; Ia48 6.25 g/ha a.s.,60
same,herbicidal activity against COMBE found,COMBE; Ia48 3.12 g/ha a.s.,60
same,herbicidal activity against BRADE found,BRADE; Ia48 6.25 g/ha a.s.,85
same,herbicidal activity against ELEIN found,ELEIN; Ia48 3.12 g/ha a.s.,20
same,herbicidal activity against DIGSA found,DIGSA; Ia48 6.25 g/ha a.s.,65
same,herbicidal activity against SETVI found,SETVI; Ia48 12.5 g/ha a.s.,95
same,herbicidal activity against ERICA found,ERICA; Ia48 12.5 g/ha a.s.,90
same,herbicidal activity against Amaranthus retroflexus,Amaranthus retroflexus [3],very good herbicidal activity (a very good herbicidal activity is given at values of at least 85)
same,herbicidal activity against Erigeron Canadensis,Erigeron Canadensis,very good herbicidal activity (a very good herbicidal activity is given at values of at least 85)
same,"damages, unwanted plants Pharbitis purpurea",Pharbitis purpurea [4],90
same,"damages, unwanted plants Setaria faberi",Setaria faberi,98
same,herbicidal activity against Solanum nigrum,Solanum nigrum,very good herbicidal activity (a very good herbicidal activity is given at values of at least 85)
"C#CCN1C(=O)COc2cc(F)c(-n3c(=O)cc(C(F)(F)F)n(C)c3=O)cc21 [example 39, reference compound]","damages, unwanted plants Pharbitis purpurea",Pharbitis purpurea [4],80
same,"damages, unwanted plants Setaria faberi",Setaria faberi,90
